Where two headings read alike, the source gives them in different places.
How the values were obtained:
[1] = test system: CTGF promoter; assay: CTGF-luciferase reporter in HeLa cells; assay type: cell-based, human; conditions: 6 h, indicated concentrations
From the text: Activation of TEAD transcription factors in response to YAP binding induces the expression of many genes that encode proteins known to be involved in promoting cell proliferation and migration (see Supplement Figure 14). The best characterized TEAD target genes associated with the promotion of cell proliferation and migration are CCN1 and CTGF.[39],[59],[60] […] We therefore tested whether CPD3 inhibited the promoter activity of known TEAD target genes, CCN1 and CTGF, in the HeLa transformed cell line and primary rat VSMCs (RaVSMCs). Cells were transfected with plasmids expressing bioluminescent firefly luciferase reporter genes under the control of either the CCN1 or CTGF promoter regions. […] As both CCN1 and CTGF are classical TEAD target genes, this is consistent with the inhibition of TEAD activity by CPD3.
TNT1-minP reporter containing the Troponin-T minimal promoter was generated by digesting 8xGTIIC-luciferase plasmid (Addgene #34615) with Kpn1 and BglII to remove the TEAD elements, followed by blunt end re-ligation. A 2.177 kb fragment of the human CCN1 promoter containing two proximal TEAD elements (Hg19;chr1:86044316–chr1:86046493) was described previously[39] and cloned into pGL4-luciferase (Promega). […]

[2] = test system: HeLa cells; assay: Real-time IncuCyte scratch wound migration assay in HeLa cells; assay type: cell-based, human
Description: (§1) Cell proliferation was measured using the Click-iT EdU 488 assay (Sigma-Aldrich). Briefly, the cells were treated with indicated concentrations of compounds for 24 h with the last 4 h being in the presence of 10 μM EdU. The cells were fixed in 4% formaldehyde and stained for EdU incorporation, following the kit’s standard protocol. The cells were counterstained with Hoechst 33342 nucleic acid for 20 min. Fluorescent images of at least three fields of view per well were counted using ImageJ software. Real-time analysis of cell migration was performed using an IncuCyte ZOOM live cell imaging system (Essen BioScience) according to the manufacturer’s instructions. Briefly, the cells were seeded (1.2 × 10^4 cells/well for HeLa cells, 1.5 × 10^4 cells/well for RaVSMCs, and 1 × 10^4 cells/well) into ImageLock 96-well plates. After 36 h, the cells were pretreated overnight with indicated concentrations of compounds. The wells were scratched using a WoundMaker tool, and the media were replaced containing test compounds. Phase contrast images of cell migration into the wounded area were acquired hourly for 24 h. Relative wound confluence was calculated using the Cell Migration Image analysis module of the IncuCyte ZOOM software.

[3] = test system: HeLa cells; assay: Live/dead cell viability assay (ethidium homodimer-1) in HeLa cells; assay type: cell-based
Description: Cell viability was quantified using the live/dead viability/cytotoxicity assay standard protocol (Invitrogen). Maximum cell death was quantified by incubating cells for 10 min with 0.1% Triton-X, followed by incubation with 0.4 μM ethidium homodimer-1 for an additional 10 min. Fluorescence was measured using a GloMax Discover multiplate reader (Promega).
Supplement Figure 3: Effect of shortlisted compounds on cell viability
(§2) HeLa cells transduced with TEAD-NLUC reporter were treated with indicated compounds at 100 µM for 6 hours (n=3). Cell viability was quantified by staining with 0.4 µM ethidium homodimer-1 and ethidium homodimer-1 uptake quantified by measuring fluorescence at 645 nm using a Glomax Discover plate reader.
(§3) (1 picture or pasted object on this page, not shown here)
as §2, with “Supplement Figure 6: Effect of CPD3, CPD3.1, CPD3.2 and CPD 3.3 on cell viability HeLa” for “HeLa”, “concentrations of CPD3, CPD3.1, CPD3.2 and CPD 3.3” for “compounds at 100 µM”, “plate” for “plate reader.”

[4] = test system: TEAD target genes (CCN1, CTGF, PAI1, THBS, MAYDM, MYOC); assay: qRT-PCR of TEAD target gene mRNA in RaVSMCs; assay type: cell-based, rat
Description: Figure 9 Compound 3.1 inhibits TEAD target gene expression, cell proliferation, and cell migration in RaVSMCs. RaVSMCs stably transduced with TEAD-NLUC (A) or transiently transfected with CCN1-LUC or CTGF-LUC were treated with the indicated concentrations of compound 3.1 for 6 hr. Cell conditioned media (A) or cell lysates (B−C) were assayed for nanoluciferase or fire-fly luciferase activity, respectively. VSMC were treated with 60 μM compound 3.1 for 6 h (n = 3). Total RNA was analyzed for mRNA levels of TEAD-target genes (D) or constitutive housekeeping genes (E) by qRT-PCR. VSMC were treated with indicated concentrations of compound 3.1 for 16 hr (n = 4). Total cell lysates were analyzed for CCN1 protein expression by Western blotting (F). RaVSMCs (G) or HuVSMC (H) were treated with indicated concentrations of compound 3.1 for 18 h followed by labeling in 10 μM EdU for a further 6 h (n = 4). RaVSMCs (I) or HuVSMC (J) were treated with indicated concentrations of compound 3.1 and cell migration quantified using IncuCyte real time migration assay (n = 4).
Quantitative reverse transcription (RT)-PCR: quantification of mRNA was performed by RT-qPCR, as described previously.[39] Total RNA was extracted using Ambion PureLink kits (Thermo Fisher) and reverse-transcribed using QuantiTect RT kit (Qiagen) and random primers. Quantitative PCR was performed using Roche SYBR Green using a Qiagen Roto-GeneRotor-Gene Q PCR machine (20 seconds@95 °C; 20 seconds @62 °C; 20 seconds@72 °C). Data were normalized to nonstimulated controls. Primer sequences are described in Supplement Table 2.
Supplement Figure 11: Dose repose analysis of CPD3.1 on CCN1, CTGF and THBS
RaVSMC were treated with the indicated doses of CPD3.1 and total RNA analysed for
levels of steady state mRNA of CCN1, CTGF and THBS mRNA using qRT-PCR (n=4).
as §3

[5] = test system: RaVSMCs; assay: Real-time IncuCyte scratch wound migration assay in RaVSMCs; assay type: cell-based, rat
Description: as §1
Supplement Figure 5: Effect of low micromolar doses of CPD3 on rat VSMC migration.
VSMC were incubated with the indicated doses of CPD3 for 18 hours before quantification […]

[6] = RaVSMC dose-response, Supplement Figure 11

SMILES | CTGF-luciferase reporter gene activity [1] | cell migration (scratch wound) [2] | effect on cell viability [3] | concentration giving inhibition of CCN1 mRNA [4, 6] [µM] | concentration giving inhibition of CTGF mRNA [4, 6] [µM] | concentration giving inhibition of THBS mRNA [4, 6] [µM] | steady-state mRNA levels of TEAD target genes (CCN1, CTGF, PAI1, THBS, MAYDM, MYOC) ([4]; VSMC, 60 μM, 6 h) | cell migration (scratch wound) [5] | effect on cell viability ([3]; 100 µM, 6 hours, HeLa TEAD-NLUC cells) | effect on cell viability ([3]; indicated concentrations, 6 hours, HeLa (Supplement Figure 6)) | steady-state mRNA levels of endogenous CCN1 and CTGF genes ([4]; RaVSMCs, Supplement Figure 4)
Cc1ccc2c(c1)c1c3n2CCNC3CCC1 (centres unmarked) [CPD3.1] | dose-dependent inhibition | significantly inhibited HeLa cell migration at 40, 60, and 80 μM | without affecting cell viability | 20 | 40 | 10 | significantly inhibited | inhibited in a dose-dependent manner by 2, 10, and 20 μM CPD3.1 |  |  | 
Cc1ccc2c(c1)c1c3n2CCN(CC(O)CN2CCN(C(=O)c4ccco4)CC2)C3CCC1 (centres unmarked) [CPD3] | strong and significant dose-dependent inhibition | dose-dependently inhibited |  |  |  |  |  | dose-dependently inhibited | without significantly affecting cell viability | did not affect cell viability | significantly inhibited
